Columns and labels:
[1] = tested on: adult male Wistar rats, four-vessel occlusion (4VO) transient forebrain ischemia; test: Neuronal apoptosis by TUNEL assay after transient global cerebral ischemia (4VO); assay type: in vivo, rat; conditions: for Neuroprotection (neuronal apoptosis, TUNEL): vehicle = 0%
Method: Transient forebrain ischemia was induced in adult male Wistar rats (10–12 weeks, Charles River, L’Arbresle, France) by the standard four-vessel occlusion (4VO) model previously described. Briefly, animals were anesthetized by intraperitoneal injection of a combination of ketamine, diazepam, and atropine (62.5, 5.0, and 0.25 mg/kg, respectively); positioned in a stereotactic device; and both vertebral arteries were cauterized. The next day, anesthesia was induced with 4% isoflurane and maintained at 2–2.5% isoflurane for carotid artery dissection. After anesthesia withdrawal, the carotid arteries were occluded with an atraumatic vascular clamp to induce brain ischemia. During the entire surgical procedure, temperature was monitored at 2 min intervals and kept at 37 °C. After 15 min of ischemia, the carotid arteries were unclamped for brain reperfusion. The animals were studied after 5 days of reperfusion (R5d), or after 11 weeks of reperfusion (long-term studies), and then they were euthanized under deep anesthesia. Animals from the sham control group were handled in the same way, but without occlusion of the carotid arteries. Ischemic animals were treated with vehicle solution (ethanol/polyethylene glycol 400/saline, 1:300:200 v/v), or with nitrones QN23 or NXY-059 in vehicle solution, as a single injection through the tail vein at the onset of reperfusion. For the therapeutic window experiments, the animals were also treated at reperfusion times 1, 3, and 6 h after ischemia. The treatments were prepared by an independent researcher and administered with concealed allocation. Treatments were administered in a randomized order obtained by a computer-based randomization program. To determine the sample size, a power analysis (http://www.biomath.info/power/ttest.htm, accessed on 12 March 2020) with significance level set at 0.05 and statistical power set at 0.8 (80%) rendered a sample size of <6 subjects per group. A total of 120 ischemic animals (30 animals treated with vehicle, 60 treated with QN23, and 30 treated with NXY-059) and 9 sham control animals were included in these studies. Additionally, 13 animals were excluded from the study: 6 animals were not ischemic and 7 animals died within the 24 h after the surgical procedure (5 vehicles, 1 QN23-treated at 1.0 mg/kg, and 1 QN23-treated at 2.0 mg/kg). The Animal Care Ethics Committee of the Hospital Universitario Ramón y Cajal (Madrid, Spain) authorized all the procedures involving the animal experimentation reported here (authorization number 04/2020). These experiments were performed according to ARRIVE guidelines and the legislation on the protection of animals used for scientific purposes in Spain (RD 53/2013) and the EU (Directive 2010/63/EU). The study was designed and conducted according to the STAIR guidelines regarding physiological monitoring, sample randomization, predefined exclusion criteria, allocation concealment, blinded assessment of outcomes, dose–response definition, and a conflict-of-interest statement.
After 5 days of reperfusion (R5d), or at 11 weeks of reperfusion in long-term studies, animals were euthanized by transcardiac perfusion via the left ventricle under deep anesthesia. First, blood was washed out with 200 mL of ice-cold saline medium, followed by fixation with 4% (w/v) paraformaldehyde solution in PBS for brain preservation. Then, the brains were carefully removed from the cranial cavity and placed in 4% (w/v) paraformaldehyde solution in PBS overnight at 4 °C. The next day, the brains were sequentially placed in 10%, 20%, and 30% (w/v) sucrose in PBS until sunken, and finally embedded in Tissue-Tek O.C.T. (Sakura Finetek, Torrance, CA, USA) before freezing at −80 °C. Brain coronal sections containing the hippocampus region were obtained by cryostat sectioning at the level of interaural line +5.7 ± 0.2 mm on Real Capillary Gap microscope slides (Agilent Dako, Santa Clara, CA, USA). […]

[2] = tested on: adult male Wistar rats, four-vessel occlusion (4VO) transient forebrain ischemia; test: Long-term behavioral tests in the Y maze; assay type: in vivo, rat; conditions: 2.0 mg/kg i.v. at reperfusion onset, 11 weeks after ischemia
Method: Long-term assessment of neurological damage after the ischemic episode was performed by the evaluation of the spontaneous exploratory activity (spatial recognition) and spatial memory skills in the Y maze.
For the assessment of the exploratory activity and spatial recognition, control animals and ischemic animals treated with vehicle, QN23, or NXY-059 were placed in the center of the maze and allowed free exploration for 8 min. An independent researcher blind to the treatment allocation registered the total number of arms that the animal entered indistinctly (arm entries), and the times that the animal explored the three different arms of the maze consecutively (alternations or triads).
For the assessment of spatial memory, experiments consisted of two trials. For the first trial (training), control and ischemic animals treated with vehicle or QN23 were placed into one of the arms (start arm) and allowed to explore the Y maze for 10 min with one of the arms closed. One hour after the training trial, the animals were returned to the Y maze and the second trial was conducted. The animals were placed in the same start arm as in the training trial, but now with the remaining two arms of the maze available for exploration for 3 min. A researcher blind to the treatment allocation registered the first choice of arm for entry (novel or old).

[3] = set-up: method as in PMID 30715875; conditions: in vitro; cited from earlier work

In the case of `COc1ccc2nc(Cl)c(/C=[N+](\[O-])C(C)(C)C)cc2c1` [QN23, (Z)-N-tert-Butyl-1-(2-chloro-6-methoxyquinolin-3-yl)methanimine Oxide], the “Therapeutic window: injection time after reperfusion onset with significantly reduced apoptosis-positive cells” value ([1]; 2.0 mg/kg i.v., CA1 and cortical regions, R5d, times tested 0, 1, 3, 6 h) was “up to 3 h”, the “Neuroprotection (neuronal apoptosis, TUNEL)” value ([1]; CA1, 1.5 mg/kg i.v. at reperfusion onset, R5d) was 16.2% and the “Neuroprotection (neuronal apoptosis, TUNEL)” value ([1]; CA1, 2.0 mg/kg i.v. at reperfusion onset, R5d) was 27.8%. The “Number of apoptotic cells compared with vehicle” value ([1]; CA1 and cortical regions, 2.0 and 2.5 mg/kg i.v. at reperfusion onset, R5d) was “significant decrease”, the “Neuroprotection (neuronal apoptosis, TUNEL)” value ([1]; cortical region, 1.5 mg/kg i.v. at reperfusion onset, R5d) was 85.0% and the “Neuroprotection (neuronal apoptosis, TUNEL)” value ([1]; cortical region, 2.0 mg/kg i.v. at reperfusion onset, R5d) was 88.0%. For the same compound, the “EC50 of neuroprotection, TUNEL assay” value ([1]; either CA1 or cortical region, i.v., from dose-response curve) was 0.3 mg/kg, the “Y maze arm entries (exploratory activity)” value [2] was “higher number of new entries” and the “Y maze alternations (triads completed), spatial recognition” value ([2]; vehicle 5.0, control 15.75) was 7.8. The “Percentage of animals exploring the novel arm as a first choice (spatial memory)” value ([2]; vehicle 17%, control 75%) was 67% and the “Hydroxyl radical (·OH) scavenging” value [3] was “potent scavenger”.

— PMC9220178, “Preclinical Characterization of Antioxidant Quinolyl Nitrone QN23 as a New Candidate for the Treatment of Ischemic Stroke” (Antioxidants, 2022)
